Data reported in US6479515B1, “Heterocyclic benzenesulphonamide compounds as bradykinine antagonists” (Fournier Industrie et Sante, priority 1999, dated 2002).
Structures can show the parent of a compound that is named as a salt. Where two headings read alike, the source gives them in different places.

Legend:
human B2 receptor = target: T1, human B2 receptor (Homo sapiens, UniProt P30411); assay: competitive binding test on CHO cell membranes expressing the human B2 receptor using [3H]-bradykinin as ligand
T1 construct: expressed in transfected cells; host or cells: CHO cells (membranes)
T1 sequence (P30411 1-391): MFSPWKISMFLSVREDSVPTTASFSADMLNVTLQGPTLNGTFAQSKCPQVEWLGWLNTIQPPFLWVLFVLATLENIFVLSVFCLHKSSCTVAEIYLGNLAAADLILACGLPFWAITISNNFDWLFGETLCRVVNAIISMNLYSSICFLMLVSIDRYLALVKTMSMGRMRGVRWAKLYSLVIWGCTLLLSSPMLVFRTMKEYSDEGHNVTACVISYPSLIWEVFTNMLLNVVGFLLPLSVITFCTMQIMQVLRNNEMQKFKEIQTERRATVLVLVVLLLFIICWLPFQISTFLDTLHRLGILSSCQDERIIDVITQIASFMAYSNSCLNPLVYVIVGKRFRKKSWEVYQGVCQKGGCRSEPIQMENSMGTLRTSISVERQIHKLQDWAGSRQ
Method: The activity of the products according to the invention was evaluated, according to a first aspect, as a function of their aptitude to bind to the bradykinin B2 receptors. […] It is likewise known that bradykinin is amongst one of the most powerful algesic agents known. The mode of action of kinins and more particularly of bradykinin makes a coupling of the peptides to the two types of receptors called B1 and B2 respectively take place. The B2 receptor belongs to the large family of receptors with seven transmembrane domains coupled to the G proteins and seems to be more particularly involved in the field of the pathologies mentioned above. This is the reason why the products of the invention, which have the property of being able to bind to the B2 receptor, inhibit the binding of bradykinin and, consequently, suppress its harmful activity. The test employed in order to measure this property is a competitive binding test on CHO cell membranes expressing the human B2 receptor using bradykinin labelled with tritium ([^3H]-bradykinin) as ligand.
The results are expressed by the Ki value, as calculated according to the recommended method with the description of the test employed and described according to D. Pruneau et al., in Br. J. Pharmacol. 1998, 125 p 365-372.

bradykinin B2 receptor = target: T2, bradykinin B2 receptor (Homo sapiens, UniProt P30411); assay: inhibition of the contraction of the isolated human umbilical vein in the presence of bradykinin; format: cell-based
T2 construct: from tissue; host or cells: isolated human umbilical vein
T2 sequence (P30411 1-391): T1 sequence (P30411 1-391)
Excerpt: This antagonist character is expressed by the value pA2, calculated according to a biological test employed in order to measure the inhibition of the contraction of the isolated human umbilical vein by the compounds according to the invention in the presence of bradykinin. The test procedure and the method of calculation of pA2 are described in the articles of D. Pruneau et al. published in Br. J. Pharmacol. 1998, 125, p 365-372 and J L. Paquet et al. Br. J. Pharmacol. 1999, 126 (in print).

[1] = isolated human umbilical vein, contraction in the presence of bradykinin, read-out: pA2 (converted)
[2] = isolated human umbilical vein, contraction in the presence of bradykinin

| Kb (bradykinin B2 receptor; [1]) | Compound | Ki (human B2 receptor) | Kb (bradykinin B2 receptor) | pA2 (bradykinin B2 receptor; [2]) |
| --- | --- | --- | --- | --- |
|  | Cc1cc(-n2ccnc2)c2cccc(OCc3c(Cl)ccc(S(=O)(=O)N4CCC[C@H]4C(=O)NCC4CCN(CCCCO)CC4)c3Cl)c2n1 [Example 32, 1-[[2,4-Dichloro-3-[[[4-(1H-imidazol-1-yl)-2-methyl-8-quinolinyl]oxy]methyl]-phenyl]sulphonyl]-N-[[1-(4-hydroxybutyl)-4-piperidinyl]methyl]-2(S)-pyrrolidinecarboxamide, tartrate] | 1.4 nM | 0.794 nM |  |
|  | CNCCCNC(=O)[C@@H]1CCCN1S(=O)(=O)c1ccc(Cl)c(COc2cccc3c(-n4ccnc4)cc(C)nc23)c1Cl [Example 123, 1-[[2,4-Dichloro-3-[[[4-(1H-imidazol-1-yl)-2-methyl-8-quinolinyl]oxy]methyl]-phenyl]sulphonyl]-N-[3-(methylamino)propyl]-2(S)-pyrrolidinecarboxamide, trifluoroacetate] | 8.1 nM | 3.98 nM |  |
|  | Cc1cc(-n2ccnc2)c2cccc(OCc3c(Cl)ccc(S(=O)(=O)N4CCC[C@H]4C(=O)NCC4CCN(CCCO)CC4)c3Cl)c2n1 [Example 23, 1-[[2,4-Dichloro-3-[[[4-(1H-imidazol-1-yl)-2-methyl-8-quinolinyl]oxy]methyl]-phenyl]sulphonyl]-N-[[1-(3-hydroxypropyl)-4-piperidinyl]methyl]-2(S)-pyrrolidinecarboxamide, tartrate] | 0.45 nM | 0.794 nM |  |
|  | Cc1cc(-n2cncn2)c2cccc(OCc3c(Cl)ccc(S(=O)(=O)N4CCC[C@H]4C(=O)NCC4CCN(CCCO)CC4)c3Cl)c2n1 [Example 30, 1-[[2,4-Dichloro-3-[[[2-methyl-4-(1H-1,2,4-triazol-1-yl)-8-quinolinyl]oxy]-methyl]phenyl]sulphonyl]-N-[[1-(3-hydroxypropyl)-4-piperidinyl]methyl]-2(S)-pyrrolidinecarboxamide, tartrate] | 0.73 nM | 2 nM |  |
| 0.1 nM | Cc1cc(-n2ccnc2)c2cccc(OCc3c(Cl)ccc(S(=O)(=O)N4CCC[C@H]4C(=O)NCCCNC(=O)c4ccc(C(=N)N)cc4)c3Cl)c2n1 [Example 4, N-[3-[[4-(Aminoiminomethyl)benzoyl]amino]propyl]-1-[[2,4-dichloro-3-[[[4-(1H-imidazol-1-yl)-2-methyl-8-quinolinyl]oxy]methyl]phenyl]sulphonyl]-2(S)-pyrrolidinecarboxamide, bis methanesulphonate] | 0.24 nM |  |  |
|  | Cc1cc(-n2ccnc2)c2cccc(OCc3c(Cl)ccc(S(=O)(=O)N4CCC[C@H]4C(=O)NCCCN4CCCC4)c3Cl)c2n1 [Example 77, 1-[[2,4-Dichloro-3-[[[4-(1H-imidazol-1-yl)-2-methyl-8-quinolinyl]oxy]methyl]-phenyl]sulphonyl]-N-[3-(1-pyrrolidinyl)propyl]-2(S)-pyrrolidinecarboxamide, tartrate] | 6.1 nM | 2.51 nM |  |
| 7.94 nM | CC(=O)N[C@H]1CCN(S(=O)(=O)c2ccc(Cl)c(COc3cccc4c(-n5ccnc5)cc(C)nc34)c2Cl)C1 [Example 174, N-[1-[[2,4-Dichloro-3-[[[4-(1H-imidazol-1-yl)-2-methyl-8-quinolinyl]oxy]-methyl]phenyl]sulphonyl]-3(S)-pyrrolidinyl]acetamide] | 8.8 nM |  |  |
| 12.6 nM | Cc1cc(-n2ccnc2)c2cccc(OCc3c(Cl)ccc(S(=O)(=O)N4CCC[C@H]4C(=O)N(C)CCN(C)CCCCO)c3Cl)c2n1 [Example 103, 1-[[2,4-Dichloro-3-[[[4-(1H-imidazol-1-yl)-2-methyl-8-quinolinyl]oxy]methyl]-phenyl]sulphonyl]-N-methyl-N-[2-[[4-(hydroxy)butyl](methyl)amino]ethyl]-2(S)-pyrrolidinecarboxamide, methanesulphonate] | 21 nM |  |  |
| 3.98 nM | Cc1cc(-n2ccnc2)c2cccc(OCc3c(Cl)ccc(S(=O)(=O)N4CCC[C@H]4C(=O)N(C)CCN(C)CCCO)c3Cl)c2n1 [Example 101, 1-[[2,4-Dichloro-3-[[[4-(1H-imidazol-1-yl)-2-methyl-8-quinolinyl]oxy]methyl]-phenyl]sulphonyl]-N-methyl-N-[2-[[3-(hydroxy)propyl](methyl)amino]ethyl]-2(S)-pyrrolidinecarboxamide, methanesulphonate] | 50 nM |  |  |
| 0.501 nM | Cc1cc(-n2ccnc2)c2cccc(OCc3c(Cl)ccc(S(=O)(=O)N4CCC[C@H]4C(=O)NCC4CCN(CCO)CC4)c3Cl)c2n1 [64 A] | 0.034 nM |  |  |
| 6.31 nM | Cc1cc(-n2cncn2)c2cccc(OCc3c(Cl)ccc(S(=O)(=O)N4CCC[C@H]4C(=O)NCCCN4CCCC4)c3Cl)c2n1 [Example 87, 1-[[2,4-Dichloro-3-[[[2-methyl-4-(1H-1,2,4-triazol-1-yl)-8-quinolinyl]oxy]-methyl]phenyl]sulphonyl]-N-[3-(1-pyrrolidinyl)propyl]-2(S)-pyrrolidine-carboxamide, methanesulphonate] | 15 nM |  |  |
|  | Cc1cc(-n2ccnc2)c2cccc(OCc3c(Cl)ccc(S(=O)(=O)N4CCC[C@H]4C(=O)NCCN4CCCC4)c3Cl)c2n1 [Example 75, 1-[[2,4-Dichloro-3-[[[4-(1H-imidazol-1-yl)-2-methyl-8-quinolinyl]oxy]methyl]-phenyl]sulphonyl]-N-[2-(1-pyrrolidinyl)ethyl]-2(S)-pyrrolidinecarboxamide, tartrate] | 2.8 nM | 5.01 nM |  |
|  | Cc1cc(-n2ccnc2)c2cccc(OCc3c(Cl)ccc(S(=O)(=O)N4CCC[C@H]4C(=O)N(C)CCN(C)C)c3Cl)c2n1 [Example 73, 1-[[2,4-Dichloro-3-[[[4-(1H-imidazol-1-yl)-2-methyl-8-quinolinyl]oxy]methyl]-phenyl]sulphonyl]-N-[2-(dimethylamino)ethyl]-N-methyl-2(S)-pyrrolidine-carboxamide, tartrate] | 10 nM | 3.98 nM |  |
|  | 1-[[2,4-Dichloro-3-[[[4-(1H-imidazol-1-yl)-2-methyl-8-quinolinyl]oxy]methyl]-phenyl]sulphonyl]-N-[3-(4-morpholinyl)propyl]-2(S)-pyrrolidinecarboxamide, hemisulphate [Example 50] | 30 nM |  | 8.3 |
| 10 nM | Cc1cc(-n2ccnc2)c2cccc(OCc3c(Cl)ccc(S(=O)(=O)N4CCC[C@H]4C(=O)NCc4ccccn4)c3Cl)c2n1 [Example 89, 1-[[2,4-Dichloro-3-[[[4-(1H-imidazol-1-yl)-2-methyl-8-quinolinyl]oxy]methyl]-phenyl]sulphonyl]-N-[(2-pyridinyl)methyl]-2(S)-pyrrolidinecarboxamide, methanesulphonate] | 55 nM |  |  |
|  | Cc1cc(-n2cncn2)c2cccc(OCc3c(Cl)ccc(S(=O)(=O)N4CCC[C@H]4C(=O)NCCN(C)C)c3Cl)c2n1 [Example 83, 1-[[2,4-Dichloro-3-[[[2-methyl-4-(1H-1,2,4-triazol-1-yl)-8-quinolinyl]oxy]-methyl]phenyl]sulphonyl]-N-[2-(dimethylamino)ethyl]-2(S)-pyrrolidine-carboxamide, tartrate] | 14 nM | 12.6 nM |  |
|  | 1-[[2,4-Dichloro-3-[[2(L)-[[4-(2-pyridinyl)-1-piperazinyl]carbonyl]-1-pyrrolidinyl]sulphonyl]-N-methyl-N-[3-[[3-(hydroxy)propyl]-(methyl)amino]propyl]-2(S)-pyrrolidinecarboxamide, methanesulphonate [Example 105] | 7.7 nM |  | 8.3 |
